The text below walks through data of PMC3480348, “Structure and Activity Analysis of Inauhzin Analogs as Novel Antitumor Compounds That Induce p53 and Inhibit Cell Growth” (PLoS ONE, 2012).

In one test the test system is H1299 cells. In words: 3-day WST-8 cell growth inhibition assay, H1299 (p53 null). As to conditions: for EC50: NCI-H1299, 72 h WST-8, average of triplicates, highest concentration 100 µM; for effect on p53-null H1299 cells compared with p53-containing cells: in vitro cytotoxicity; for EC50 on H1299 fold higher than on H460 cells: p53-null H1299 vs p53-containing H460. The format is cell-based, human. The method, then:
(§1) EC90 values were calculated from the EC50 and Hill slope by a web-based calculator: http://www.graphpad.com/quickcalcs/Ecanything1.cfm.

Test [1] deals with H460 cells. In words: 3-day WST-8 cell growth inhibition assay, H460. The format is cell-based, human. As to conditions: for EC90: Homo sapiens, NCI-H460, calculated from EC50 and Hill slope (GraphPad web calculator), read-out: EC90, cell growth inhibition, H460 p53 wild type; for EC90 fold lower than that for INZ, H460: statement covers H460 and HCT116^+/+ together. The method, then:
as §1

In test [2] the test system is p53 level in H460 and HCT116^+/+ cells. In words: p53 induction by immunoblotting (IB), statement does not separate the cell lines. The format is cell-based, human. As to conditions: 18 hrs, 0.5, 2, 10 µM. From the text: (A–B) Initial Inauhzin analogs were purchased and tested the activity on H460 and HCT116^+/+ by immunoblotting (IB). […]
A further test has as its system HCT116^+/+ cells. In words: 3-day WST-8 cell growth inhibition assay, HCT116^+/+. The test is classed as cell-based, human. As to conditions: for EC50 / EC90: Homo sapiens; for EC50: HCT-116, 72 h WST-8, average of triplicates, highest concentration 50 µM, read-out: EC50, cell growth inhibition, HCT116^+/+ p53 wild type; for EC90 fold lower than that for INZ, HCT116^+/+: statement covers H460 and HCT116^+/+ together; for EC90: HCT-116, calculated from EC50 and Hill slope, read-out: EC90, cell growth inhibition, HCT116^+/+ p53 wild type. The protocol: as §1

The subject of test [3] is HCT116^−/− cells. In words: 3-day WST-8 cell growth inhibition assay, HCT116^−/− (p53 null). The format is cell-based, human. As to conditions: for EC50: Homo sapiens, HCT-116, 72 h WST-8, average of triplicates, highest concentration 100 µM; for effect on p53-null HCT116^−/− cells compared with p53-containing cells: in vitro cytotoxicity.
The test system of test [4] is H460 cells. The test can be described thus: 3-day WST-8 cell growth inhibition assay, H460. The format is cell-based, human. As to conditions: for EC50: Homo sapiens, NCI-H460, 72 h WST-8, average of triplicates, highest concentration 50 µM, read-out: EC50, cell growth inhibition, H460 p53 wild type.
Test [5] relates to HCT116^−/− cells. The test can be described thus: 3-day WST-8 cell growth inhibition assay, HCT116^−/− (p53 null). The format is cell-based. As to conditions: Homo sapiens, HCT-116, calculated from EC50 and Hill slope. The method, then: as §1

“Also recorded” adds a separate entry of the source.

Regarding `CCC(Sc1nnc2c(n1)[nH]c1ccccc12)C(=O)N1c2ccccc2Cc2ccccc21` (centres unmarked) [Compound 8, 2-((5H-[1,2,4]triazino[5,6-b]indol-3-yl)thio)-1-(acridin-10(9H)-yl)butan-1-one], in the test with H1299 cells (Homo sapiens), the EC50 was 10.4 µM. Further, in the test with H1299 cells, the “effect on p53-null H1299 cells compared with p53-containing cells” value is reported as “much less effective” and the “EC50 on H1299 fold higher than on H460 cells” value was 3–15 fold. Further, in the test on H460 cells [1], the EC90 is 3.5 to 10 µM and the “EC90 fold lower than that for INZ, H460” value is 3–10 fold. Also, the “p53 induction / activation by synthetic analogs” value in test [2] is “drastically induced p53 at 0.5 µM; also recorded: greater potentcy than compound 1; also recorded: more potent in p53 activation than their parental compound INZ”. Also, the “fold higher potency than INZ in growth inhibition of HCT116^+/+ cells” value in the test on HCT116^+/+ cells (EC50 compared with INZ) is given as “more than 2 fold”. For the same molecule, in the test with HCT116^+/+ cells, the EC50 was 1.3 µM and the “EC90 fold lower than that for INZ, HCT116^+/+” value is given as 3–10 fold. For the same molecule, in the test on HCT116^−/− cells [3], the EC50 came out at 5.9 ± 1 µM and the “effect on p53-null HCT116^−/− cells compared with p53-containing cells” value is on record as “much less effective”. In addition, in the test on H460 cells [4] (EC50 compared with INZ), the “fold higher potency than INZ in growth inhibition of H460 cells” value was “more than 2 fold”. Moreover, the EC50 in the test on H460 cells [4] was 2.7 µM.
As for `CCC(Sc1nnc2c(n1)[nH]c1ccccc12)C(=O)N1c2ccccc2Oc2ccccc21` (centres unmarked) [Compound 9, 2-((5H-[1,2,4]triazino[5,6-b]indol-3-yl)thio)-1-(10H-phenoxazin-10-yl)butan-1-one], in test [2], the “p53 induction / activation by synthetic analogs” value is “inactive”.
Still for that read-out and setting: to `CCCCC(Sc1nnc2c(n1)[nH]c1ccccc12)C(=O)N1c2ccccc2Sc2ccccc21` (centres unmarked) [Compound 14, 2-((5H-[1,2,4]triazino[5,6-b]indol-3-yl)thio)-1-(10H-phenothiazin-10-yl)hexan-1-one] belongs “lower activity for p53 induction”; to `CCC(Sc1nnc2c(n1)[nH]c1cc(F)ccc12)C(=O)N1c2ccccc2Sc2ccccc21` (centres unmarked) [Compound 15, 2-((7-fluoro-5H-[1,2,4]triazino[5,6-b]indol-3-yl)thio)-1-(10H-phenothiazin-10-yl)butan-1-one], “inactive”; to `CCC(Sc1nnc2c(n1)[nH]c1cc(OC)ccc12)C(=O)N1c2ccccc2Sc2ccccc21` (centres unmarked) [Compound 18, 2-((7-methoxy-5H-[1,2,4]triazino[5,6-b]indol-3-yl)thio)-1-(10H-phenothiazin-10-yl)butan-1-one], “marked decrease in p53 activation”.
As to `CCC(Sc1nnc2c3ccccc3n(C(=O)c3ccccc3)c2n1)C(=O)N1c2ccccc2Sc2ccccc21` (centres unmarked) [Compound 21, 2-((5-benzoyl-5H-[1,2,4]triazino[5,6-b]indol-3-yl)thio)-1-(10H-phenothiazin-10-yl)butan-1-one], the EC90 in the test with H1299 cells (Homo sapiens, NCI-H1299, calculated from EC50 and Hill slope) was 82.3 µM; in the test with H460 cells [1], 9.6 µM; in the test with HCT116^−/− cells [5] it was over 1000 µM; with HCT116^+/+ cells, 21.9 µM. The EC50 with H1299 cells (Homo sapiens) is 12.6 ± 1.4 µM; in the test on HCT116^+/+ cells, 2.1 ± 1 µM; with HCT116^−/− cells [3], 28.2 ± 1.4 µM; in the test on H460 cells [4], 4.3 ± 0.3 µM. Also, the “effect on p53-null H1299 cells compared with p53-containing cells” value with H1299 cells is listed as “much less effective”. The “effect on p53-null HCT116^−/− cells compared with p53-containing cells” value in the test with HCT116^−/− cells [3] was “much less effective”.
With `CCC(Sc1nnc2c3ccccc3n(C(=O)c3cccnc3)c2n1)C(=O)N1c2ccccc2Sc2ccccc21` (centres unmarked) [Compound 22, 2-((5-nicotinoyl-5H-[1,2,4]triazino[5,6-b]indol-3-yl)thio)-1-(10H-phenothiazin-10-yl)butan-1-one], the EC90 in the test with H460 cells [1] was 20.5 µM. In the test on H460 cells [4], the EC50 was 4.9 ± 1 µM.
`CCCCCC(=O)C1(SC(CC)C(=O)N2c3ccccc3Sc3ccccc32)N=c2[nH]c3ccccc3c2=NN1` (centres unmarked) [Compound 23, 1-(3-((1-oxo-1-(10H-phenothiazin-10-yl)butan-2-yl)thio)-5H-[1,2,4]triazino[5,6-b]indol-3-yl)hexan-1-one]: the EC90 in the test on H460 cells [1] is 22.6 µM. The EC50 with H460 cells [4] was determined as 6.7 ± 0.7 µM.
Take `C=CCCC(=O)n1c2ccccc2c2nnc(SC(CC)C(=O)N3c4ccccc4Sc4ccccc43)nc21` (centres unmarked) [Compound 24, 1-(3-((1-oxo-1-(10H-phenothiazin-10-yl)butan-2-yl)thio)-5H-[1,2, 4]triazino[5,6-b]indol-5-yl)pent-4-en-1-one]: in the test with H460 cells [1], the EC90 was 14.5 µM. In the test with H460 cells [4], the EC50 was 5.7 ± 0.3 µM.
As to `CCC(Sc1nnc2c3ccccc3n(C(=O)CCCCBr)c2n1)C(=O)N1c2ccccc2Sc2ccccc21` (centres unmarked) [Compound 26, 5-bromo-1-(3-((1-oxo-1-(10H-phenothiazin-10-yl)butan-2-yl)thio)-5H-[1,2, 4]triazino[5,6-b]indol-5-yl)pentan-1-one], the EC90 in the test with H460 cells [1] is 38.2 µM. In the test with H460 cells [4], the EC50 was determined as 16 ± 0.9 µM.
The corresponding values for `CCOC(=O)CCCC(=O)n1c2ccccc2c2nnc(SC(CC)C(=O)N3c4ccccc4Sc4ccccc43)nc21` (centres unmarked) [Compound 27, Ethyl 5-oxo-5-(3-((1-oxo-1-(10H-phenothiazin-10-yl)butan-2-yl)thio)-5H-[1,2,4]triazino[5,6-b]indol-5-yl)pentanoate] are 9 µM and 3.4 ± 0.3 µM.
`CCOC(=O)Cn1c2ccccc2c2nnc(SC(CC)C(=O)N3c4ccccc4Sc4ccccc43)nc21` (centres unmarked) [Compound 28, Ethyl 2-(3-((1-oxo-1-(10H-phenothiazin-10-yl)butan-2-yl)thio)-5H-[1,2,4]triazino[5,6-b]indol-5-yl)acetate]: the “p53 induction / activation by synthetic analogs” value in test [2] was “essentially inactive”.
Same read-out and setting: then `CCC(Sc1nnc2c3ccccc3n(CC(=O)O)c2n1)C(=O)N1c2ccccc2Sc2ccccc21` (centres unmarked) [Compound 29, 2-(3-((1-oxo-1-(10H-phenothiazin-10-yl)butan-2-yl)thio)-5H-[1,2,4]triazino[5,6-b]indol-5-yl)acetic acid], with “essentially inactive”.
Molecule `CCC(Sc1nnc2c3ccccc3n(CCO)c2n1)C(=O)N1c2ccccc2Sc2ccccc21` (centres unmarked) [Compound 30, 2-((5(2-hydoxyethyl)-5H-[1,2,4]triazino[5,6-b]indol-5-yl)thiol)-1-(10H-phenothiazin-10-yl)butan-1-one] yielded an EC50 with H1299 cells (Homo sapiens) of 16.6 µM. Besides, in the test on H1299 cells, the “effect on p53-null H1299 cells compared with p53-containing cells” value is on record as “much less effective” and the “EC50 on H1299 fold higher than on H460 cells” value was 3–15 fold. In the test with H460 cells [1], the EC90 was about 7.7 µM and the “EC90 fold lower than that for INZ, H460” value is reported as 5 fold. Further, the “p53 induction / activation by synthetic analogs” value in test [2] is “comparable to compound 8; also recorded: more potent in p53 activation than their parental compound INZ”. Further, in the test with HCT116^+/+ cells, the EC90 was 4.6 µM; the EC50 is 0.8 ± 0.5 µM; the “EC90 fold lower than that for INZ, HCT116^+/+” value is given as 5 fold. In the test on HCT116^−/− cells [3], the EC50 stood at 7.8 ± 3.4 µM and the “effect on p53-null HCT116^−/− cells compared with p53-containing cells” value is recorded as “much less effective”. The EC50 in the test with H460 cells [4] worked out at 3.5 ± 0.4 µM.
As for `C#CCCn1c2ccccc2c2nnc(SC(CC)C(=O)N3c4ccccc4Sc4ccccc43)nc21` (centres unmarked) [Compound 32, 2-((5(but-3-yn-1-yl)-5H-[1,2,4]triazino[5,6-b]indol-3-yl)thiol)-1-(10H-phenothiazin-10-yl)butan-1-one], the “p53 induction / activation by synthetic analogs” value in test [2] is given as “significant decrease in activity”.
Same read-out and setting: to `CCC(Sc1nnc2c3ccccc3n(CC(=O)c3ccccc3)c2n1)C(=O)N1c2ccccc2Sc2ccccc21` (centres unmarked) [Compound 33, 2-((5-(2-oxo-2-phenylethyl)-5H-[1,2,4]triazino[5,6-b]indol-3-yl)thiol)-1-(10H-phenothiazin-10-yl)butan-1-one] belongs “significant decrease in activity”.
